This note sets out measurements from article PMC11754895 (Nature Communications, 2025).

For this assay, the target named is T1, OleTKM (Kocuria marina, UniProt A0A0B0D9P4).
T1 sequence (A0A0B0D9P4 1-428): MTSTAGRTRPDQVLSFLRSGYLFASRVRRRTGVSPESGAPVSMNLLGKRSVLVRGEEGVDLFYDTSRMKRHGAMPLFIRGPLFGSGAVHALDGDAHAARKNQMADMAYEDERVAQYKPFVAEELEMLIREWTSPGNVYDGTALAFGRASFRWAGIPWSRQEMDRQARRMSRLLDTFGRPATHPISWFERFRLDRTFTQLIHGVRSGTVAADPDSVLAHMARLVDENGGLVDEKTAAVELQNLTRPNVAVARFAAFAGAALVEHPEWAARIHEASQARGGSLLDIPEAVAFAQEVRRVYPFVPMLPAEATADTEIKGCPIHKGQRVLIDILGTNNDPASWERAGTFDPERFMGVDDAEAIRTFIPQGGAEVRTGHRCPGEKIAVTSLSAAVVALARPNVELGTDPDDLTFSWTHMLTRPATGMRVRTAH
Briefly: inhibition of myristic acid turnover. The class given is biochemical. As to conditions: even mixture of C14:0 and C18:1; competitive.

Consider `CCCCCCCC/C=C\CCCCCCCC(=O)O` [oleic acid], for which the “inhibition of myristic acid turnover” value is “presence of oleic acid impaired the activity of OleTKM against myristic acid (Fig. 1d)”.
